Measured values reported in patent US20260297129A1, “PEPTIDES AS SELECTIVE IL-23 RECEPTOR INHIBITORS” (SANOFI, priority 2023, published 2026).
≈ marks a conversion by molar mass, not a printed value. Where two headings read alike, the source gives them in different places. Numbered stars: 1 amine (or outer) side, 2 acyl side, 3 side chain; on linkers, the order of the positions; unused ones are H or OH. Bridge positions count the residues as written; N and C are the ends. Square brackets hold non-standard residues; d marks the D form. Peptide text beside a SMILES is read from it. * marks the point of attachment. Lys(Me,(CH2)4NMe(CH2)5CO) = CN(CCCCCC(=O)[*:3])CCCCN(C)CCCC[C@H](N[*:1])C(=O)[*:2]; Lys(Me,(CH2)4NMe(CH2)4CO) = CN(CCCCC(=O)[*:3])CCCCN(C)CCCC[C@H](N[*:1])C(=O)[*:2]; Trp(7-Me) = Cc1cccc2c(C[C@H](N)C(=O)O)c[nH]c12; NH(2-(3-pyridyl)ethyl) = c1cncc(CCN*)c1; Sebacoyl = O=C(CCCCCCCCC(=O)[*:2])[*:1]; αMeLys(Me2) = CN(C)CCCC[C@](C)(N)C(=O)O; NH(CH2)9CO = O=C(CCCCCCCCCN[*:1])[*:2]; 2Nal = N[C@@H](Cc1ccc2ccccc2c1)C(=O)O; X4 = O=C(CCCCCCCCCCCCCCCN[*:1])[*:2]; 3Pal = N[C@@H](Cc1cccnc1)C(=O)O; Lys(Me) = CNCCCC[C@H](N)C(=O)O; Thp = NC1(C(=O)O)CCOCC1; Me2NCH2CH2 = CN(C)CC*; Aib = CC(C)(N)C(=O)O; Aoc = NCCCCCCCC(=O)O; Sar = CNCC(=O)O

Columns and labels:
[1] = Protease stability in simulated gastric fluids (FaSSGF) (Table 7); assay type: in vitro ADME; settings: fassgf with pepsin, 60 min, 37° C., read-out: Remaining percentage of peptide compound, FaSSGF 60 (min)
In short: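 Peptides at 1 μM final were incubated at 37 °C in simulated gastric fluid with pepsin (320 mg per 100 mL SGF concentrate). Samples were quenched with ethanol (0.1% HCOOH) at 0, 60, 120 and 240 min and analysed by LC-MS/MS. Percent remaining is the peak area relative to T0 (100%).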

human IL-23R = target: T1, human IL-23R (Homo sapiens, UniProt Q5VWK5); assay: Inhibition of IL-23 binding to IL-23R as measured by ELISA (Table 8); settings: human IL23 coated 1 μg/ml; human IL-23R-Fc 0.1 μg/ml; 60 min; read-out: Human ELISA IL23/IL23R IC50
T1 sequence (Q5VWK5 24-353 limits assumed): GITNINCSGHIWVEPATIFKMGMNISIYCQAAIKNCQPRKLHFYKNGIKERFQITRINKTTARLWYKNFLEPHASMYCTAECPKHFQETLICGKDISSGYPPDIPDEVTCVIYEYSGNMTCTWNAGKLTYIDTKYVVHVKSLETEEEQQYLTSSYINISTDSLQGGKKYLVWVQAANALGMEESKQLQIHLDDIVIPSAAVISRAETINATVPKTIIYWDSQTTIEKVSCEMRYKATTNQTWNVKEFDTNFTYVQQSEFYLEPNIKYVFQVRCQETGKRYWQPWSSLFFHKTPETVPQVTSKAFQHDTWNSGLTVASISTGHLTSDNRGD
Experimental: Antagonism of compounds for human interleukin-23 receptor inhibitors, was determined by an ELISA assay.
A 384-well plate was coated with 50 μl/well of human IL23 at a final concentration of 1 μg/ml and incubated overnight at 4° C. The wells were washed 3 times with 80 μl wash buffer and blocked with 80 μl blocking buffer for 60 minutes at room temperature and washed again. 20 μl of serially diluted test peptides was added to each well and subsequently 20 μl of recombinant human IL-23R-Fc chimera at final concentration of 0.1 μg/ml. The plate was incubated for 60 minutes at room temperature. After the wells were washed, bound IL23R-Fc was detected with goat anti-hu-IgG1-HRP antibody. Signals were visualized with QUANTABLU fluorogenic peroxidase substrate.

[2] = Solubility of peptide compounds in buffer formulations (Table 5); assay type: physicochemical; settings: target 1 mg/ml
In short: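 Peptide solids, dried from DMSO stock, were taken up at 1 mg/mL in 50 mM HCl pH 1.2, or 50 mM phosphate pH 6.5 or pH 7.4. After 2 h gentle agitation and filtration (0.45 μm), solubility was determined by UHPLC-UV peak area against a DMSO standard of known concentration.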

[3] = Protease stability in simulated intestinal fluids (FaSSIF) (Table 7); assay type: in vitro ADME; settings: fassif with pancreatin, 37° C.; for remaining at 1 h, 1 µM: 60 min, read-out: Remaining percentage of peptide compound, FaSSIF 60 (min); for remaining at 2 h, 1 µM: 120 min, read-out: Remaining percentage of peptide compound, FaSSIF 120 (min); for remaining at 4 h, 1 µM: 240 min, read-out: Remaining percentage of peptide compound, FaSSIF 240 (min)
In short: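 1 μM peptide incubated at 37° C in simulated fluid (pancreatin-SIF prepared from pancreatin in SIF concentrate). Samples quenched with acidified ethanol at 0, 60, 120 and 240 min and analysed by LC-MS/MS. Percentage remaining from peak area relative to T0 (100%).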

[4] = test system: IL-23 induced STAT3 signaling (IL-23 receptor) in HEK-Blue IL-23 cells; assay: Inhibition of IL-23 induced STAT3 signaling in HEK-Blue IL-23 cells, SEAP reporter (Table 9); assay type: cell-based; settings: human IL23 0.25 ng/ml, overnight, read-out: Inhibition of IL-23 induced pSTAT3 (IC50 nM)
In short: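 HEK-Blue IL-23 reporter cells (10,000/well) pre-incubated 60 min at 37 °C with serially diluted peptides, then stimulated overnight with human IL-23 at 0.25 ng/ml final. SEAP in supernatant read by QUANTI-Blue, 45 min room temperature, OD 620–655 nm; dose-response curve fitting.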

[5] = Chemical stability (relative purity loss) of peptide compounds in buffer formulations (Table 6); assay type: physicochemical; settings: 2° C. and 37° C.
In short: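 Compounds at 0.5 mg/mL in 50 mM HCl pH 1.2, 50 mM phosphate pH 6.5 or pH 7.4, each with acetonitrile (3:1), stored 24 hours at 2° C and 37° C. Purity measured by UHPLC-UV before and after. Stability expressed as relative purity loss.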

[6] = Buffer pH 1.1 (head; method: 50 mM HCl pH 1.2), 2 h agitation, read-out: Solubility, Buffer pH 1.1
[7] = aqueous buffer, 50 mM phosphate buffer pH 6.5, 2 h agitation, read-out: Solubility, Buffer pH 6.5
[8] = aqueous buffer, 50 mM phosphate buffer pH 7.4, 2 h agitation, read-out: Solubility, Buffer pH 7.4

| Structure (SMILES) | remaining at 1 h, 1 µM [1] [%] | IC50 (human IL-23R) [nM] | solubility at 2 h [2, 6] [µg/mL] | solubility at 2 h [2, 7] [µg/mL] | solubility at 2 h [2, 8] [µg/mL] | remaining at 1 h, 1 µM [3] [%] | remaining at 2 h, 1 µM [3] [%] | remaining at 4 h, 1 µM [3] [%] | IC50 [4] [nM] | degraded at 24 h ([5]; 50 mM phosphate buffer pH 6.5 + acetonitrile (3:1), read-out: Chemical stability (relative purity loss), Buffer pH 6.5) [%] | degraded at 24 h ([5]; 50 mM phosphate buffer pH 7.4 + acetonitrile (3:1), read-out: Chemical stability (relative purity loss), Buffer pH 7.4) [%] | degraded at 24 h ([5]; 50 mm hcl + acetonitrile, Buffer pH 1.1 (head; method: 50 mM HCl pH 1.2 + acetonitrile 3:1), read-out: Chemical stability (relative purity loss), Buffer pH 1.1) [%] |
| --- | --- | --- | --- | --- | --- | --- | --- | --- | --- | --- | --- | --- |
| Cc1cccc2c(C[C@@H]3NC(=O)CCCCCCCCCCCCCCCNC(=O)CC[C@@H](C(=O)N[C@@H](CC(N)=O)C(=O)N[C@@H](Cc4cccnc4)C(=O)N(C)CC(N)=O)NC(=O)C(C)(C)NC(=O)[C@H](Cc4ccc5ccccc5c4)NC(=O)[C@H](Cc4ccc(OCCN(C)C)cc4)NC(=O)C4(CCOCC4)NC(=O)[C@H](CCC(N)=O)NC3=O)c[nH]c12 [compound 3] ([X4][Trp(7-Me)]Q[Thp]Y(Me2NCH2CH2)[2Nal][Aib]EN[3Pal][Sar]-NH2; lactam N-8) | 71 | 1.33 | ≥ 990 | < 10 | < 10 | 84 | 81 | 81 | 9.92 | – | – | – |
| Cc1cccc2c(C[C@@H]3NC(=O)CCCCCCCCC(=O)N(C)CCCC[C@@H](C(=O)N[C@@H](CC(N)=O)C(=O)N[C@@H](Cc4cccnc4)C(=O)N(C)CC(N)=O)NC(=O)C(C)(C)NC(=O)[C@H](Cc4ccc5ccccc5c4)NC(=O)[C@H](Cc4ccc(OCCN(C)C)cc4)NC(=O)C4(CCOCC4)NC(=O)[C@H](CCC(N)=O)NC3=O)c[nH]c12 [compound 19] ([Trp(7-Me)]Q[Thp]Y(Me2NCH2CH2)[2Nal][Aib][Lys(Me)]N[3Pal][Sar]-NH2; linker N-7 via Sebacoyl) | 97 | 0.63 | ≥ 1390 | 120 (≈ 73.6 µM) | 80 (≈ 49.1 µM) | 80 | 78 | 74 | 0.24 | – | – | – |
| Cc1cccc2c(C[C@@H]3NC(=O)CCCCN(C)CCCCN(C)CCCC[C@@H](C(=O)NCC(=O)NCCc4cccnc4)NC(=O)C(C)(C)NC(=O)[C@H](Cc4ccc5ccccc5c4)NC(=O)[C@H](Cc4ccc(OCCN(C)C)cc4)NC(=O)C4(CCOCC4)NC(=O)[C@H](CCC(N)=O)NC3=O)c[nH]c12 [compound 24] ([Trp(7-Me)]Q[Thp]Y(Me2NCH2CH2)[2Nal][Aib][Lys(Me,(CH2)4NMe(CH2)4CO)]G-{NH(2-(3-pyridyl)ethyl)}; lactam N-7) | – | 0.84 | ≥ 990 | ≥ 900 | ≥ 880 | – | – | – | 6.95 | – | – | – |
| CC(=O)NCCCC[C@@H]1NC(=O)[C@H](Cc2c[nH]c3c(C)cccc23)NC(=O)CCCCCN(C)CCCCN(C)CCCC[C@@H](C(=O)N[C@@H](CC(N)=O)C(=O)N[C@@H](Cc2cccnc2)C(=O)N(C)CC(N)=O)NC(=O)[C@](C)(CCCCN(C)C)NC(=O)[C@H](Cc2ccc3ccccc3c2)NC(=O)[C@H](Cc2ccc(OCCN(C)C)cc2)NC(=O)C2(CCOCC2)NC1=O [compound 34] ([Trp(7-Me)]K(Ac)[Thp]Y(Me2NCH2CH2)[2Nal][αMeLys(Me2)][Lys(Me,(CH2)4NMe(CH2)5CO)]N[3Pal][Sar]-NH2; lactam N-7) | 94 | – | ≥ 1200 | ≥ 1120 | ≥ 1120 | 98 | 98 | 100 | 1.34 | 0 | 0 | 0 |
| Cc1cccc2c(C[C@@H]3NC(=O)CCCCCCCCCNC(=O)CC[C@@H](C(=O)N[C@@H](CC(N)=O)C(=O)N[C@@H](Cc4cccnc4)C(=O)N(C)CC(N)=O)NC(=O)C(C)(C)NC(=O)[C@H](Cc4ccc5ccccc5c4)NC(=O)[C@H](Cc4ccc(OCCN(C)C)cc4)NC(=O)C4(CCOCC4)NC(=O)[C@H](CCC(N)=O)NC3=O)c[nH]c12 [compound 5] ([NH(CH2)9CO][Trp(7-Me)]Q[Thp]Y(Me2NCH2CH2)[2Nal][Aib]EN[3Pal][Sar]-NH2; lactam N-8) | 87 | 0.64 | ≥ 1010 | 350 (≈ 218 µM) | 170 (≈ 106 µM) | 77 | 74 | 70 | 0.26 | – | – | – |
| Cc1cccc2c(C[C@@H]3NC(=O)CCCCCCCNC(=O)CC[C@@H](C(=O)N[C@@H](CC(N)=O)C(=O)N[C@@H](Cc4cccnc4)C(=O)N(C)CC(N)=O)NC(=O)C(C)(C)NC(=O)[C@H](Cc4ccc5ccccc5c4)NC(=O)[C@H](Cc4ccc(OCCN(C)C)cc4)NC(=O)C4(CCOCC4)NC(=O)[C@H](CCC(N)=O)NC3=O)c[nH]c12 [compound 6] ([Aoc][Trp(7-Me)]Q[Thp]Y(Me2NCH2CH2)[2Nal][Aib]EN[3Pal][Sar]-NH2; lactam N-8) | 88 | 0.67 | ≥ 1240 | ≥ 1040 | ≥ 1090 | 86 | 77 | 77 | 4.77 | – | – | – |
